Data reported in patent publication US12389908B2, “Fungicide composition for controlling Zymoseptoria infection in plant” (priority 2019, dated 2025).

What was measured:
[1] = system: Zymoseptoria tritici strain Zt Tri-R6; experiment: Preventive treatment of wheat plants, inoculated leaf fragments (detached leaf test), necrosis length / AUDPC; type: in vivo
Procedure: A study was conducted to evaluate efficacy of multi-site fungicide (Captan) on zymoSeptoria tritici pathogen. Winter wheat plants cv. Alixan (Limagrain) at the BBCH 12 growth stage were treated with a hand sprayer at 2 bars calibrated to deliver the equivalent of 200 L/ha. Three replicates (pots) of 6 wheat plants each are used for all conditions tested. After treatment, wheat plants are left to dry at room temperature for 1 hour and then placed in a climatic chamber.
Twenty-four hours after treatments, 5-cm fragments of the first leaf are cut and transferred on 90-mm diameter Petri dish containing water agar supplemented with an anti-senescing compound (7 leaf fragments per Petri dish). Leaf fragments are then inoculated with a paint brush dipped into the calibrated pycnospores suspension of Z. tritici strain Mg Tri-R6.
After inoculation, Petri dishes are placed in adapted climatic conditions.
Disease assessments are carried out 21 and 28 days post inoculation (dpi) by measuring the length of the necrosis and the total length of the leaf fragment. The intensity of infection is then determined in percent of the total length of the leaf fragment. The values of the intensity of infection obtained are compared by means of the Newman and Keuls test (XL-Stat software, Addinsoft Ltd.).
The most commonly used method for estimating the Area Under the Disease Progress Curve (AUDPC), the trapezoidal method, is performed. The fungicide efficacy was determined from the intensity of infection and the AUDPC values and expressed in percent of the untreated control.

[2] = system: Speckled leaf blotch of wheat (Spetoria Titrici); experiment: Field trials (Trial 1 and Trial 2) in winter wheat, control of speckled leaf blotch; type: in vivo, Zymoseptoria tritici
Procedure: Two trials were conducted in Winter wheat/Triticum aestivum (winter), variety ADVISOR, to evaluate the control of Speckled leaf blotch of wheat (Spetoria Titrici) as primary target. All products were applied with a knapsack sprayer using compressed air as the propellant. The sprayer was equipped with a boom and flat fan nozzles, and calibrated to apply a homogeneous spray volume at a constant pressure.
Application method: Application A: At the beginning of disease attack and Application B: Renew the application when new disease attack occurs in the best plots, 3 weeks after application A (at least 2 weeks, at the most 4 weeks).

[3] = Dose 1600 g a.i./ha, strain Zt Tri-R6, wheat leaf fragments treated preventively

N#Cc1c(Cl)c(Cl)c(Cl)c(C#N)c1Cl [Chlorothalonil]
Fungicide efficacy against Zymoseptoria tritici (% Control) ([1]; Dose 750 g a.i./ha, strain Zt Tri-R6, wheat leaf fragments treated preventively): 69.2 % Control

Mancozeb
Fungicide efficacy against Zymoseptoria tritici (% Control) [1, 3]: 21.0 % Control

S1SSSSSSS1 [sulphur]
Fungicide efficacy against Zymoseptoria tritici (% Control) ([1]; Dose 4200 g a.i./ha, strain Zt Tri-R6, wheat leaf fragments treated preventively): 65.8 % Control

CC1COC(Cn2cncn2)(c2ccc(Oc3ccc(Cl)cc3)cc2Cl)O1 (stereo not drawn) [Difenoconazole]
Fungicide efficacy against Zymoseptoria tritici (% Control) ([1]; Table 2, from AUDPC values, dose 25 g a.i./ha, strain Zt Tri-R6): 81.8 % Control

OC(Cc1ccccc1Cl)(Cn1nc[nH]c1=S)C1(Cl)CC1 (stereo not drawn) [Prothioconazole]
Fungicide efficacy against Zymoseptoria tritici (%) ([1]; Table 3, from AUDPC values, dose 30 g a.i./ha, strain Zt Tri-R6): 68.2%
Fungicide efficacy against Zymoseptoria tritici (%) ([1]; Table 4, from AUDPC values, dose 22.5 g a.i./ha, strain Zt Tri-R6): 62.9%
Fungicide efficacy against Zymoseptoria tritici (% Control) ([2]; Trial 1, winter wheat field, rate 0.31 L/ha, 28 DA-B (first 28 DA-B column)): 31.2 % Control
Fungicide efficacy against Zymoseptoria tritici (% Control) ([2]; Trial 1, winter wheat field, rate 0.31 L/ha, 28 DA-B (second 28 DA-B column)): 28.8 % Control
Fungicide efficacy against Zymoseptoria tritici (% Control) ([2]; Trial 2, winter wheat field, rate 0.31 L/ha, 26 DA-A): 42.3 % Control
Fungicide efficacy against Zymoseptoria tritici (% Control) ([2]; Trial 2, winter wheat field, rate 0.31 L/ha, 40 DA-A (first 40 DA-A column)): 40.7 % Control
Fungicide efficacy against Zymoseptoria tritici (% Control) ([2]; Trial 2, winter wheat field, rate 0.31 L/ha, 40 DA-A (second 40 DA-A column)): 58.4 % Control

O=C1C2CC=CCC2C(=O)N1SC(Cl)(Cl)Cl (stereo not drawn) [Captan]
efficiency ([1]; 800 g/ha, strain Zt Tri-R6): 77%
inhibition of the development of the Z. tritici strain into wheat leaf tissues ([1]; 1600, 2400 and 3200 g/ha): almost completely inhibits
Fungicide efficacy against Zymoseptoria tritici (% Control) ([1]; Dose 800 g a.i./ha, strain Zt Tri-R6, wheat leaf fragments treated preventively): 77.9 % Control
Fungicide efficacy against Zymoseptoria tritici (% Control) [1, 3]: 96.0 % Control
Fungicide efficacy against Zymoseptoria tritici (% Control) ([1]; Dose 2400 g a.i./ha, strain Zt Tri-R6, wheat leaf fragments treated preventively): 97.0 % Control
Fungicide efficacy against Zymoseptoria tritici (% Control) ([1]; Dose 3200 g a.i./ha, strain Zt Tri-R6, wheat leaf fragments treated preventively): 100 % Control
effectiveness for controlling Septoria tritici ([1]; conclusion from Tables 1 to 5): effective for controlling Septoria tritici
fungicidal efficacy against Zymoseptoria tritici strain Zt Tri-R6 ([1]; lowest rate of 800 g/ha): very good fungicidal efficacy
Fungicide efficacy against Zymoseptoria tritici (% Control) ([2]; Trial 1, winter wheat field, rate 1.8 L/ha, 28 DA-B (first 28 DA-B column)): 32.4 % Control
Fungicide efficacy against Zymoseptoria tritici (% Control) ([2]; Trial 1, winter wheat field, rate 1.8 L/ha, 28 DA-B (second 28 DA-B column)): 24.5 % Control
Fungicide efficacy against Zymoseptoria tritici (% Control) ([2]; Trial 2, winter wheat field, rate 1.8 L/ha, 26 DA-A): 41.3 % Control
Fungicide efficacy against Zymoseptoria tritici (% Control) ([2]; Trial 2, winter wheat field, rate 1.8 L/ha, 40 DA-A (first 40 DA-A column)): 31.9 % Control
Fungicide efficacy against Zymoseptoria tritici (% Control) ([2]; Trial 2, winter wheat field, rate 1.8 L/ha, 40 DA-A (second 40 DA-A column)): 25.7 % Control
